Patent US9150665B2, “Cellulose interpolymers and method of oxidation” (Eastman Chemical Company, priority 2003, dated 2015)
In brackets after ≈: the same amount, converted by molar mass.

Assay: physchem
Details: for % Drug Solubilized: pH 3.9; for Sw/So: pH 4; for solubility: water
Description: The heterogeneous mixture was mixed well before carefully adjusting the pH with 0.1 N NaOH until the CA dissolved giving a clear solution. […] Four independent aqueous CA solutions were prepared by this process. […] The ethanol solution of each drug was then added slowly to the aqueous CA solutions previously prepared.
All of the samples were filtered thru 0.45 micron syringe filters before measurement. […] Solutions of each of the oxidized CA:drug mixtures were also prepared in 50/50 ethanol/Millipore water. […] All samples were immediately analyzed for the amount of drug in the solution using an UV-Vis Spectrophotometer.

Sw (amount of drug solubilized)	% Drug Solubilized	Sw/So	solubility	Structure (SMILES)
0.1461 g/L/25 g of drug:CAOX	7%	1.2	120 µg/mL (≈ 421 µM)	N#Cc1ccc(C(c2ccc(C#N)cc2)n2cncn2)cc1 [letrozole]
1.2481 g/L/25 g of drug:CAOX	90%	1.9	650 µg/mL (≈ 2220 µM)	CC(C)(C#N)c1cc(Cn2cncn2)cc(C(C)(C)C#N)c1 [anastrozole]
